The values below come from the NIST ThermoML archive (doi:10.1016/j.jct.2015.04.005).

Numbers after ± are expanded uncertainties.

Data set [1] can be described thus: xn = mol fraction of the nth substance listed. The following applies: 102.24 kPa, Liquid, x2 = 0; for speed of sound: Frequency=5 MHz, Single path-length method; for mass density: Vibrating tube method.
For data set [2] the following is noted: 102.24 kPa, Liquid, Frequency=5 MHz, Single path-length method.

Take `O` [water] + CCC(=O)[O-].C[NH2+]CCO: the speed of sound – broadly, the propagation velocity of pressure waves in the medium – in data set [1] (313.15 K) was 1528.9 ± 8 m/s; in data set [1] (328.15 K), 1547.4 ± 8 m/s; in data set [1] (333.15 K) it was 1551 ± 8 m/s. Besides, the mass density (commonly the mass of a sample divided by its volume) in data set [1] (323.15 K) was 988 ± 1.7 kg/m3; in data set [1] (328.15 K), 985.7 ± 1.7 kg/m3; in data set [1] (333.15 K), 983.2 ± 1.7 kg/m3.

Regarding `CCC(=O)[O-].C[NH2+]CCO` [2-hydroxy-N-methylethanaminium propionate], the speed of sound in data set [2] (293.15 K) was determined as 1656.9 ± 8.1 m/s; in data set [2] (298.15 K) it was 1638.4 ± 8.1 m/s; in data set [2] (303.15 K), 1624.6 ± 8.1 m/s; in data set [2] (308.15 K), 1607 ± 8.1 m/s; in data set [2] (313.15 K), 1588.5 ± 8.1 m/s; in data set [2] (318.15 K), 1573.2 ± 8.1 m/s. For the same molecule, the speed of sound in data set [2] (323.15 K) came out at 1558.3 ± 8.1 m/s; in data set [2] (328.15 K) it was 1543.7 ± 8.1 m/s; in data set [2] (333.15 K), 1527 ± 8.1 m/s; in data set [2] (338.15 K) it was 1507.1 ± 8.1 m/s; in data set [2] (343.15 K) it was 1492.6 ± 8.1 m/s.
